Results as given in patent publication US11524968B2, “Heterocyclic compound as a protein kinase inhibitor” (HK inno.N Corporation, priority 2017, dated 2022).

What follows are molecules tested against JAK1 (Homo sapiens (Human), UniProt P23458) (assay: Analysis of JAK1 activity inhibition ability (ADP-Glo Kinase Assay)). Conditions: JAK1 enzyme, ADP-Glo luminescence, ATP 250 uM, IRS-itide substrate, 30° C. 40 minutes; read-out: IC50.
Format: biochemical
Outline: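 JAK1 enzyme, IRS-itide substrate (40 ng/mL) and 250 uM ATP, both as prepared in kinase buffer (Tris-HCl pH 7.5, MgCl2, BSA, DTT), reacted with compound 40 min at 30 °C. ADP formed was detected by ADP-Glo luminescence; IC50 is the concentration giving 50% inhibition versus control.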

Chain of JAK1 (P23458 whole entry): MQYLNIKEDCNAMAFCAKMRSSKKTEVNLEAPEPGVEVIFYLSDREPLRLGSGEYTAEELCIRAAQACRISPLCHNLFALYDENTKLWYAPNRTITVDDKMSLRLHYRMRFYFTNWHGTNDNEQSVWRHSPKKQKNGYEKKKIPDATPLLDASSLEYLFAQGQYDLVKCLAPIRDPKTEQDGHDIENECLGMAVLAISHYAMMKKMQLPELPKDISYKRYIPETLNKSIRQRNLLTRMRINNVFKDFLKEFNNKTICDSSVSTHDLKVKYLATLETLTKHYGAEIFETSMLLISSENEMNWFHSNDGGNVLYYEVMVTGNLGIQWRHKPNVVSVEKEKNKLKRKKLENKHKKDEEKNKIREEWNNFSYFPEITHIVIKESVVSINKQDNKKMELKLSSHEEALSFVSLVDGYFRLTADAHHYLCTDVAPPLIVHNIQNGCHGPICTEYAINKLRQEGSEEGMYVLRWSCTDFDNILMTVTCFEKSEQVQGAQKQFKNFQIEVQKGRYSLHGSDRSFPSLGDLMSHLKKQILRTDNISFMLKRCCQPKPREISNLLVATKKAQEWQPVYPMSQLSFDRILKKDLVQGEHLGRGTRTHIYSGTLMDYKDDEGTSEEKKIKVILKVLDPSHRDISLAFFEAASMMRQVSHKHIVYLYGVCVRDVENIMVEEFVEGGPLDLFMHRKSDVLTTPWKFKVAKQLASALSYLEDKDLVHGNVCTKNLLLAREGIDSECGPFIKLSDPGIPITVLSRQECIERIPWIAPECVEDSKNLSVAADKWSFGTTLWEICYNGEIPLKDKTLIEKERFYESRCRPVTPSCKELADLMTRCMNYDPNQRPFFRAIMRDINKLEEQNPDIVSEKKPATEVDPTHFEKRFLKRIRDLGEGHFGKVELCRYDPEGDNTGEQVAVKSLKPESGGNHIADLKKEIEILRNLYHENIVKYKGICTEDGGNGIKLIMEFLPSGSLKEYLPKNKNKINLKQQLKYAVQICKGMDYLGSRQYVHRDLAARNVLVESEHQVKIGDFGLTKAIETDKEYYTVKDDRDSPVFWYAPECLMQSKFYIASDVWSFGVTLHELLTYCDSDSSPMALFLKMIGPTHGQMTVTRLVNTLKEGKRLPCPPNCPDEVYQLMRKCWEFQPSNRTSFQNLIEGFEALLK

| Structure (SMILES) | IC50 |
| --- | --- |
| Cc1cc(C(=O)N2CCOCC2)ccc1-c1cc(NC(=O)C2CC2)nc2[nH]ccc12 [Example 522, N-(4-(2-methyl-4-(morpholine-4-carbonyl)phenyl)-1H-pyrrolo[2,3-b]pyridin-6-yl)cyclopropanecarboxamide] | 0.02 to 0.2 µM |
| O=C(Nc1cc(-c2ccc(NC3CCN(C(=O)Nc4ccc(F)cc4F)CC3)cc2)c2cc[nH]c2n1)C1CC1 [Example 511, 4-((4-(6-(cyclopropanecarboxamido)-1H-pyrrolo[2,3-b]pyridin-4-yl)phenyl)amino)-N-(2,4-difluorophenyl)piperidine-1-carboxamide] | 0.02 to 0.2 µM |
| O=C(Nc1cc(-c2ccc(CC(=O)N3CCC(C(F)(F)F)CC3)cc2)c2cc[nH]c2n1)C1CC1 [Example 570, N-(4-(4-(2-oxo-2-(4-(trifluoromethyl)piperidin-1-yl)ethyl)phenyl)-1H-pyrrolo[2,3-b]pyridin-6-yl)cyclopropanecarboxamide] | 0.02 to 0.2 µM |
| O=C(Nc1cc(C2=CC3CCCC(C2)N3C(=O)c2ccnc(F)c2)c2cc[nH]c2n1)C1CC1 (stereo not shown) [Example 366, N-(4-(9-(2-fluoroisonicotinoyl)-9-azabicyclo[3.3.1]non-2-en-3-yl)-1H-pyrrolo[2,3-b]pyridin-6-yl)cyclopropanecarboxamide] | < 0.02 µM |
| N#CCC1(N2CC=C(c3cc(NC(=O)C4CC4)nc4[nH]ccc34)CC2)CNC1 [Example 615, N-(4-(1-(3-(cyanomethyl)azetidin-3-yl)-1,2,3,6-tetrahydropyridin-4-yl)-1H-pyrrolo[2,3-b]pyridin-6-yl)cyclopropanecarboxamide] | 0.02 to 0.2 µM |
| COC(=O)C1(C(=O)N2CC=C(c3cc(NC(=O)C4CC4)nc4[nH]ccc34)C(C)C2)CC1 (stereo not shown) [Example 319, methyl 1-(4-(6-(cyclopropanecarboxamido)-1H-pyrrolo[2,3-b]pyridin-4-yl)-3-methyl-1,2,3,6-tetrahydropyridine-1-carbonyl)cyclopropane-1-carboxylate] | > 0.2 µM |
| CCS(=O)(=O)N1CC(CC#N)(N2C3CCC2CN(c2cc(NC(=O)C4CC4)nc4[nH]ccc24)C3)C1 [Example 701, N-(4-(8-(3-(cyanomethyl)-1-(ethylsulfonyl)azetidin-3-yl)-3,8-diazabicyclo[3.2.1]octan-3-yl)-1H-pyrrolo[2,3-b]pyridin-6-yl)cyclopropanecarboxamide] | > 0.2 µM |

The next lines start with the values.

| IC50 | Structure (SMILES) |
| --- | --- |
| 0.02 to 0.2 µM | CCS(=O)(=O)Nc1ccc(-c2cc(NC(=O)C3CC3)[n+]([O-])c3[nH]ccc23)cc1F [Example 97, 6-(cyclopropanecarboxamido)-4-(4-(ethylsulfonamido)-3-fluorophenyl)-1H-pyrrolo[2,3-b]pyridine 7-oxide] |
| < 0.02 µM | O=C(Nc1cc(-c2ccc(NS(=O)(=O)CC3CC3)cc2)c2cc[nH]c2n1)C1CC1 [Example 46, N-(4-(4-((cyclopropylmethyl)sulfonamido)phenyl)-1H-pyrrolo[2,3-b]pyridin-6-yl)cyclopropanecarboxamide] |
| 0.02 to 0.2 µM | Cc1cc(C(=O)N2CC=C(c3cc(NC(=O)C4CC4)nc4[nH]ccc34)C(C)C2)cc(Cl)n1 (stereo not shown) [Example 375, N-(4-(1-(2-chloro-6-methylisonicotinoyl)-3-methyl-1,2,3,6-tetrahydropyridin-4-yl)-1H-pyrrolo[2,3-b]pyridin-6-yl)cyclopropanecarboxamide] |
| < 0.02 µM | O=C(Nc1nc(-c2ccc(NS(=O)(=O)CCCF)cc2)c2cc[nH]c2n1)C1CC1 [Example 185, N-(4-(4-((3-fluoropropyl)sulfonamido)phenyl)-7H-pyrrolo[2,3-d]pyrimidin-2-yl)cyclopropanecarboxamide] |
| > 0.2 µM | O=C(Nc1nc(-c2ccc(CN3CCS(=O)(=O)CC3)cc2)c2nc[nH]c2n1)C1CC1 [Example 592, N-(6-(4-((1,1-dioxidothiomorpholino)methyl)phenyl)-9H-purin-2-yl)cyclopropanecarboxamide] |
| 0.02 to 0.2 µM | Cc1cc(NS(=O)(=O)CCCC#N)ccc1-c1cc(NC(=O)C2CC2)nc2[nH]ccc12 [Example 96, N-(4-(4-((3-cyanopropyl)sulfonamido)-2-methylphenyl)-1H-pyrrolo[2,3-b]pyridin-6-yl)cyclopropanecarboxamide] |
